Reference: ChEMBL document CHEMBL4680060, “Polybasic peptide-levofloxacin conjugates potentiate fluoroquinolones and other classes of antibiotics against multidrug-resistant Gram-negative bacteria” (Medchemcomm, 2019)
≈ marks a conversion by molar mass, not a printed value.

Tests used:
Staphylococcus aureus [1] = assay: Antibacterial activity against Staphylococcus aureus ATCC 29213 assessed as inhibition of visible growth incubated for 18 hrs by CLSI protocol based microbroth dilution method; type: functional
Staphylococcus aureus [2] = assay: Antibacterial activity against methicillin-resistant Staphylococcus aureus ATCC 33592 assessed as inhibition of visible growth incubated for 18 hrs by CLSI protocol based microbroth dilution method; type: functional
[3] = system: Staphylococcus epidermidis; assay: Antibacterial activity against methicillin-susceptible Staphylococcus epidermidis clinical isolate CANWARD-2008 81388 assessed as inhibition of visible growth incubated for 18 hrs by CLSI protocol based microbroth dilution method; type: functional
Staphylococcus aureus [4] = assay: Antibacterial activity against methicillin-resistant Staphylococcus aureus clinical isolate CAN-ICU 61589 assessed as inhibition of visible growth incubated for 18 hrs by CLSI protocol based microbroth dilution method; type: functional
Enterococcus faecalis = assay: Antibacterial activity against Enterococcus faecalis ATCC 29212 assessed as inhibition of visible growth incubated for 18 hrs by CLSI protocol based microbroth dilution method; type: functional
Escherichia coli = assay: Antibacterial activity against Escherichia coli ATCC 25922 assessed as inhibition of visible growth incubated for 18 hrs by CLSI protocol based microbroth dilution method; type: functional
Enterobacter cloacae = assay: Antibacterial activity against Enterobacter cloacae 117029 assessed as inhibition of visible growth incubated for 18 hrs by CLSI protocol based microbroth dilution method; type: functional
[5] = system: Stenotrophomonas maltophilia; assay: Antibacterial activity against Stenotrophomonas maltophilia clinical isolate CAN-ICU 62584 assessed as inhibition of visible growth incubated for 18 hrs by CLSI protocol based microbroth dilution method; type: functional
Acinetobacter baumannii = assay: Antibacterial activity against Acinetobacter baumannii clinical isolate CAN-ICU 63169 assessed as inhibition of visible growth incubated for 18 hrs by CLSI protocol based microbroth dilution method; type: functional
Klebsiella pneumoniae = assay: Antibacterial activity against Klebsiella pneumoniae 116381 assessed as inhibition of visible growth incubated for 18 hrs by CLSI protocol based microbroth dilution method; type: functional
Pseudomonas aeruginosa [6] = assay: microbe, parasite or virus in culture; details: PAO1, 18 h
Pseudomonas aeruginosa [7] = assay: microbe, parasite or virus in culture; details: PAO1, 18 h; remark: listed apart in the source
Pseudomonas aeruginosa [8] = assay: microbe, parasite or virus in culture; details: PAO1, 18 h; remark: listed apart in the source
Streptococcus pneumoniae = assay: Antibacterial activity against Streptococcus pneumoniae ATCC 49619 assessed as inhibition of visible growth incubated for 18 hrs by CLSI protocol based microbroth dilution method; type: functional
Pseudomonas aeruginosa [9] = assay: Antibacterial activity against Pseudomonas aeruginosa ATCC 27853 assessed as inhibition of visible growth incubated for 18 hrs by CLSI protocol based microbroth dilution method; type: functional
Pseudomonas aeruginosa [10] = assay: Potentiation of ciprofloxacin-induced antibacterial activity against wild type Pseudomonas aeruginosa PAO1 assessed as ciprofloxacin MIC measured after 18 hrs by CLSI protocol based microbroth dilution method (reference value: 0.125 ug/ml); type: functional
Pseudomonas aeruginosa [11] = assay: Potentiation of levofloxacin-induced antibacterial activity against wild type Pseudomonas aeruginosa PAO1 assessed as levofloxacin MIC measured after 18 hrs by CLSI protocol based microbroth dilution method (reference value: 0.5 ug/ml); type: functional
Pseudomonas aeruginosa [12] = assay: Potentiation of moxifloxacin-induced antibacterial activity against wild type Pseudomonas aeruginosa PAO1 assessed as moxifloxacin MIC measured after 18 hrs by CLSI protocol based microbroth dilution method (reference value: 1 ug/ml); type: functional

SMILES | MIC (Staphylococcus aureus [1]) [µg/mL] | MIC (Staphylococcus aureus [2]) [µg/mL] | MIC [3] [µg/mL] | MIC (Staphylococcus aureus [4]) [µg/mL] | MIC (Enterococcus faecalis) [µg/mL] | MIC (Escherichia coli) [µg/mL] | MIC (Enterobacter cloacae) [µg/mL] | MIC [5] [µg/mL] | MIC (Acinetobacter baumannii) [µg/mL] | MIC (Klebsiella pneumoniae) [µg/mL] | MIC (Pseudomonas aeruginosa [6]) [µg/mL] | MIC (Pseudomonas aeruginosa [7]) [µg/mL] | MIC (Pseudomonas aeruginosa [8]) [µg/mL] | MIC (Streptococcus pneumoniae) [µg/mL] | MIC (Pseudomonas aeruginosa [9]) [µg/mL] | MIC (Pseudomonas aeruginosa [10]) [µg/mL] | MIC (Pseudomonas aeruginosa [11]) [µg/mL] | MIC (Pseudomonas aeruginosa [12]) [µg/mL]
C[C@H]1COc2c(N3CCN(C)CC3)c(F)cc3c(=O)c(C(=O)O)cn1c23.C[C@H]1COc2c(N3CCN(C)CC3)c(F)cc3c(=O)c(C(=O)O)cn1c23.O [LEVOFLOXACIN] | ≤ 0.25 | ≤ 0.25 | ≤ 0.25 | > 128 | 2 | ≤ 0.25 | 0.125 | 4 | 1 | 128 | 16 | 16 | – | – | – | – | – | –
COc1c(N2C[C@@H]3CCCN[C@@H]3C2)c(F)cc2c(=O)c(C(=O)O)cn(C3CC3)c12 [MOXIFLOXACIN] | – | – | – | – | – | – | – | – | – | – | 16 (≈ 39.9 µM) | 8 (≈ 19.9 µM) | 8 (≈ 19.9 µM) | – | – | – | – | –
C[C@H]1COc2c(N3CCN(C)CC3)c(F)cc3c(=O)c(C(=O)NCCCCCCCCCCCC(=O)N[C@@H](CCN)C(N)=O)cn1c23 | 128 (≈ 195 µM) | > 128 | 64 (≈ 97.3 µM) | 128 (≈ 195 µM) | > 128 | > 128 | 128 (≈ 195 µM) | > 128 | > 128 | > 128 | – | – | – | > 128 | > 128 | 0.063 | 0.25 | 1
C[C@H]1COc2c(N3CCN(C)CC3)c(F)cc3c(=O)c(C(=O)N[C@@H](CCC(=O)O)C(=O)N[C@H](CN)CCC(=O)O)cn1c23 | > 128 | > 128 | > 128 | > 128 | > 128 | 128 (≈ 212 µM) | > 128 | 16 (≈ 26.5 µM) | > 128 | > 128 | – | – | – | > 128 | > 128 | 0.125 | 0.5 | 1
O=C(O)c1cn(C2CC2)c2cc(N3CCNCC3)c(F)cc2c1=O [CIPROFLOXACIN] | – | – | – | – | – | – | – | – | – | – | – | 16 (≈ 48.3 µM) | 32 (≈ 96.6 µM) | – | – | – | – | –
C[C@H]1COc2c(N3CCN(C)CC3)c(F)cc3c(=O)c(C(=O)N[C@@H](CCN)C(=O)N[C@@H](CCN)C(N)=O)cn1c23 | > 128 | > 128 | > 128 | > 128 | > 128 | 128 (≈ 228 µM) | > 128 | > 128 | > 128 | > 128 | – | – | – | > 128 | > 128 | 0.125 | 0.25 | 1
C[C@H]1COc2c(N3CCN(C)CC3)c(F)cc3c(=O)c(C(=O)N[C@H](CN)CCC(=O)O)cn1c23 | > 128 | > 128 | > 128 | > 128 | > 128 | > 128 | > 128 | > 128 | > 128 | > 128 | – | – | – | > 128 | > 128 | 0.125 | 0.5 | 1
C[C@H]1COc2c(N3CCN(C)CC3)c(F)cc3c(=O)c(C(=O)N[C@@H](CCN)C(N)=O)cn1c23 | > 128 | > 128 | > 128 | > 128 | > 128 | 128 (≈ 278 µM) | > 128 | > 128 | > 128 | > 128 | – | – | – | > 128 | > 128 | 0.125 | 0.5 | 1
